# Measurements reported in PubChem BioAssay (NCI).
#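 Each compound was tested at five concentrations against cells in 96-well plates for 48 hours. GI50 marks 50% less growth. At the TGI there is no net growth.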
# Assays:
# Experiment in all cases: NCI-60 cell line screen, 48 h
# DU-145 prostate = test system: DU-145 prostate
# HCT-15 colon = test system: HCT-15 colon
# HL-60(TB) leukemia = test system: HL-60(TB) leukemia
# HOP-62 NSCLC = test system: HOP-62 NSCLC
# HT29 colon = test system: HT29 colon
# MCF7 breast = test system: MCF7 breast
# NCI-H522 lung = test system: NCI-H522 lung
# OVCAR-8 ovarian = test system: OVCAR-8 ovarian
# RXF 393 renal = test system: RXF 393 renal
# SNB-19 CNS = test system: SNB-19 CNS
Structure (SMILES),GI50 (DU-145 prostate),TGI (DU-145 prostate),GI50 (HCT-15 colon),TGI (HCT-15 colon),GI50 (HL-60(TB) leukemia),TGI (HL-60(TB) leukemia),GI50 (HOP-62 NSCLC),TGI (HOP-62 NSCLC),GI50 (HT29 colon),TGI (HT29 colon),GI50 (MCF7 breast),TGI (MCF7 breast),GI50 (NCI-H522 lung),TGI (NCI-H522 lung),GI50 (OVCAR-8 ovarian),TGI (OVCAR-8 ovarian),GI50 (RXF 393 renal),TGI (RXF 393 renal),GI50 (SNB-19 CNS),TGI (SNB-19 CNS)
Cn1ncc2c(N)nc(N3CCCCC3)nc21,19.2 µM,74.7 µM,26.2 µM,82.5 µM,36 µM,> 100 µM,51.9 µM,> 100 µM,22.5 µM,68.6 µM,17.1 µM,39.9 µM,23 µM,63.9 µM,25.9 µM,76.1 µM,18.2 µM,58.7 µM,22.5 µM,> 100 µM
Cn1c(=O)c(Oc2ccccc2F)cc2cnc(NC3CCOCC3)nc21,> 25 µM,> 25 µM,> 25 µM,> 25 µM,> 25 µM,> 25 µM,> 25 µM,> 25 µM,> 25 µM,> 25 µM,> 25 µM,> 25 µM,> 25 µM,> 25 µM,> 25 µM,> 25 µM,> 25 µM,> 25 µM,> 25 µM,> 25 µM
N#Cc1c(-c2ccccc2)cc(-c2ccc(Nc3nc(Nc4ccc(Cl)cc4)nc(Nc4ccc(Cl)cc4)n3)cc2)nc1N,4.67 µM,20.4 µM,1.56 µM,5.1 µM,1.71 µM,5.35 µM,19.1 µM,35 µM,3.8 µM,16.5 µM,1.56 µM,4.16 µM,1.39 µM,3.1 µM,3.94 µM,> 100 µM,1.78 µM,4.72 µM,29.7 µM,> 100 µM
COc1ccccc1NC(=O)n1nc(N)c2ccccc21,> 100 µM,> 100 µM,63.6 µM,> 100 µM,55 µM,> 100 µM,> 69.3 µM,> 100 µM,> 73.4 µM,> 100 µM,0.0842 µM,4.32 µM,53.9 µM,> 100 µM,> 78.3 µM,> 100 µM,36.7 µM,> 100 µM,> 100 µM,> 100 µM
OCCSCc1ccccc1,–,> 100 µM,–,> 100 µM,–,> 100 µM,–,> 100 µM,–,> 100 µM,–,> 100 µM,–,> 100 µM,–,> 100 µM,–,> 100 µM,–,> 100 µM
Cc1cc(C)c(C[N+](C)(C)C)c(C)c1C,0.347 µM,11.4 µM,0.313 µM,19.4 µM,0.496 µM,> 24.7 µM,0.323 µM,7.59 µM,0.388 µM,17.4 µM,0.289 µM,15.2 µM,0.208 µM,2.61 µM,0.328 µM,> 41.6 µM,0.249 µM,3.43 µM,0.351 µM,> 64.5 µM
O=C(NCCCNc1cc(-c2cn(-c3ccccc3)nc2-c2cccc(O)c2)ccn1)c1ccccc1,5.29 µM,96.5 µM,1.51 µM,5.12 µM,1.68 µM,4.19 µM,3.79 µM,14.1 µM,1.71 µM,5.23 µM,1.74 µM,5.29 µM,3.06 µM,17.1 µM,4.45 µM,37.7 µM,1.97 µM,6.2 µM,7.75 µM,> 100 µM
CC/C=C\C[C@H](O)C/C=C1/C(=O)C=C[C@@H]1C/C=C\CCCC(=O)N(C)C,3.27 µM,15.4 µM,1.29 µM,5.87 µM,2.27 µM,13.6 µM,1.99 µM,8.35 µM,0.853 µM,2.97 µM,0.368 µM,12.2 µM,1.33 µM,2.98 µM,1.54 µM,11.4 µM,1.73 µM,3.26 µM,3.19 µM,14.1 µM
CN1CCCN(C)C1c1cc([N+](=O)[O-])ccc1O,–,> 100 µM,–,> 100 µM,–,61.4 µM,–,> 100 µM,–,> 100 µM,–,63.3 µM,–,> 100 µM,–,> 100 µM,–,> 100 µM,–,> 100 µM
CCCCCCCCCCN(CCCCCCCCCC)CC(=O)c1ccc2cc(Br)c3ccccc3c2c1,3.69 µM,10.3 µM,1.52 µM,3.34 µM,2.01 µM,4.22 µM,1.63 µM,3.4 µM,1.32 µM,2.77 µM,1.8 µM,3.25 µM,1.56 µM,3.27 µM,2.09 µM,4.31 µM,1.98 µM,3.5 µM,2.04 µM,5.75 µM
C[C@]1(CO)[C@H]2CC[C@@]34C=C[C@@](CO)(CC[C@H]3[C@]2(C)CC[C@H]1O)C4,–,> 100 µM,–,> 100 µM,–,> 100 µM,–,> 100 µM,–,> 100 µM,–,> 100 µM,–,> 100 µM,–,> 100 µM,–,> 100 µM,–,> 100 µM
O=c1nc(Nc2cccc(Cl)c2)oc2cc(Cl)oc(=O)c12,10.4 µM,25.3 µM,5.82 µM,28.3 µM,10.8 µM,55.2 µM,11 µM,31.4 µM,9.39 µM,29.3 µM,4.33 µM,20.9 µM,2.45 µM,8.16 µM,7.06 µM,32.1 µM,3.22 µM,8.52 µM,20 µM,> 100 µM
CCCCNN,–,> 100 µM,–,> 100 µM,–,> 100 µM,–,> 100 µM,–,> 100 µM,–,> 100 µM,–,> 100 µM,–,> 100 µM,–,> 100 µM,–,> 100 µM
